According to patent US20230235397A1, “METHODS FOR CLASSIFICATION AND TREATMENT OF PSYCHOTIC DISORDER SUBJECTS” (CENTRE HOSPITALIER UNIVERSITAIRE VAUDOIS (CHUV), priority 2019, published 2023):

Tested on: Gclm-KO+GBR mice
Test: MitoQ treatment of Gclm-KO+GBR mice (oxidative stress model), markers in anterior cingulate cortex
Format: in vivo
Excerpt: Treatment with MitoQ (P21-P40) in Gclm-KO mice treated with GBR12909 normalizes NIX, FUNDC1 and LC3B expression levels as well as miR-137 expression intensity when compared to values observed for wild-type mice (FIG. 7). […] Thus, MitoQ has been unexpectedly found to be useful in reversing the miR-137 overexpression, mitophagy and parvalbumin interneuron impairment induced by oxidative stress.
Example 9 relates to an animal model of oxidative stress. Oxidative stress elicits mitophagy in the anterior cingulated cortex (ACC) of Gclm-KO mice (transgenic mice carrying permanent defect in glutathione GSH synthesis). […] Because extranuclear localization of 8-oxo-dG labeling was observed, it could be surmised that mitochondrial DNA (mtDNA) was affected. […] In comparison with WT mice (Gclm-WT+PBS, wherein PBS refers to phosphate-buffered saline, a common buffer used in these experiments as vehicle), levels of the mitophagy receptors NIX and FUNDC1 and of the autophagosome LC3B were reduced in the ACC of Gclm-KO mice (Gclm-KO+PBS, at P40). […] Taken together, these observations are consistent with an oxidative stress-induced mitophagy deficit in prefrontal parvalbumin interneurons.
It has been shown that miR-137 plays a functional role in modulating synaptic function and in regulating the expression of the NIX and FUNDC1 mitophagy receptors.
In view of the detrimental effects of oxidative stress on integrity of parvalbumin interneurons, miR-137 expression level as well as mitophagy during preweaning and pubertal stages of development, it was evaluated whether MitoQ treatment, a selective mitochondria targeted-antioxidant, could rescue these deficits in young KO mice. Treatment with MitoQ (P21-P40) in Gclm-KO+GBR mice normalized NIX, FUNDC1 and LC3B expression levels as well as miR-137 expression intensity, when compared to WT values (FIG. 7). […] Thus, MitoQ can reverse the oxidative stress induced miR-137 overexpression, mitophagy and parvalbumin interneuron impairment, highlighting that the upregulation of miR-137 and subsequent mitophagy defect constitutes the molecular mechanism underlying the oxidative stress-induced parvalbumin interneuron impairment.

[1] = ACC of Gclm-KO+GBR animals, following treatment with MitoQ
[2] = MitoQ P21-P40, Gclm-KO+GBR mice, ACC, compared to WT values (FIG. 7)

For COC1=C(OC)C(=O)C(CCCCCCCCCC[PH](c2ccccc2)(c2ccccc2)c2ccccc2)=C(C)C1=O [MitoQ, mitoquinone], the “abnormalities in cell body numbers of parvalbumin interneurons” value [1] was “restored to WT levels”, the “staining intensity of parvalbumin interneuron processes” value [1] was “restored to WT levels” and the FUNDC1 expression level [2] was “normalized”. The LC3B expression level [2] was “normalized”, the NIX expression level [2] was “normalized” and the miR-137 expression intensity [2] was “normalized”.
